Here are results for 8 molecules from ChEMBL document CHEMBL1201862, “PubChem BioAssay data set” (2004).

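96-well plates; 48 h exposure; 5 concentrations. Endpoints by linear interpolation between flanking doses. Not reached: highest tested concentration assigned. GI50 marks 50% less growth.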 The source made the active and inactive calls. No stated cut-off is given here; in the data, active = GI50 up to about 1.1 µM and inactive = higher.

Among the test systems are UACC-257; Hs-578T; HCT-15; SNB-19; K562; OVCAR-3; MDA-MB-231; SK-MEL-2; IGROV-1; HT-29; TK-10; NCI-H226; OVCAR-8; SF-539; OVCAR-4; PC-3; OVCAR-5; HOP-62; NCI-H23.
What all share (assay): inhibition of tumour cell growth, NCI panel, 48 h

For the molecule `CSc1nc2c(N)ncnc2n1C`, the GI50 was > 100 µM (inactive) with UACC-257; > 100 µM (inactive) in the experiment with Hs-578T; over 100 µM in the experiment with HCT-15; > 100 µM (inactive) in the experiment on SNB-19; > 100 µM (inactive) with K562; > 100 µM (inactive) with OVCAR-3. Moreover, the GI50 with MDA-MB-231, with SK-MEL-2, in the experiment with IGROV-1, with HT-29, in the experiment with TK-10 and in the experiment with NCI-H226 was > 100 µM (inactive) throughout. Moreover, the GI50 in the experiment with OVCAR-8, in the experiment with SF-539, in the experiment with OVCAR-4, in the experiment on PC-3, with OVCAR-5 and with HOP-62 was > 100 µM (inactive) throughout.

As to `CC(OC(C)(C)C)[C@H](NC(=O)OC(C)(C)C)C(=O)O` (some centres undefined), the GI50 with UACC-257 is > 100 µM (inactive); with Hs-578T, > 100 µM (inactive); in the experiment on HCT-15 it was over 100 µM; with SNB-19 it was > 100 µM (inactive); with K562, > 100 µM (inactive); in the experiment on NCI-H23, > 100 µM (inactive). Further, the GI50 in the experiment on OVCAR-3, with MDA-MB-231, in the experiment with IGROV-1, in the experiment on HT-29, in the experiment with TK-10 and in the experiment with NCI-H226 was > 100 µM (inactive) throughout. Further, the GI50 in the experiment with OVCAR-8, in the experiment with SF-539, in the experiment with OVCAR-4, in the experiment with PC-3, in the experiment on OVCAR-5 and with HOP-62 was > 100 µM (inactive) each time.

For `CC(=O)OCC1OC(n2c3c(c(-c4ccc(C)cc4)c(C#N)c2=S)C(=O)CC(C)(C)C3)C(OC(C)=O)C(OC(C)=O)C1OC(C)=O` (centres undefined), the GI50 with UACC-257 is 18.5 µM (inactive); in the experiment on Hs-578T, 47.5 µM (inactive); in the experiment with SNB-19, > 100 µM (inactive); in the experiment with K562 it was 22.7 µM (inactive); in the experiment on NCI-H23, 42.8 µM (inactive); in the experiment with OVCAR-3 it was 70 µM (inactive). Besides, the GI50 with MDA-MB-231 is 23.4 µM (inactive); with IGROV-1, 50.1 µM (inactive); with HT-29, 27.3 µM (inactive); with TK-10, > 100 µM (inactive); in the experiment with NCI-H226, 23.3 µM (inactive); in the experiment with OVCAR-8, 36.4 µM (inactive). The GI50 in the experiment with SF-539 is 23.3 µM (inactive); with OVCAR-4, > 10 µM (inactive); with PC-3, 18.3 µM (inactive); with OVCAR-5 it was > 100 µM (inactive); in the experiment with HOP-62, 62.5 µM (inactive).

As to `COc1ccc(/N=N/c2ccc3oc(=O)c(C(=O)Nc4ccccc4)cc3c2)cc1`, the GI50 was > 10 µM (inactive) in the experiment on UACC-257; > 10 µM (inactive) in the experiment on Hs-578T; over 9.23 µM in the experiment on HCT-15; > 10 µM (inactive) in the experiment on SNB-19; > 10 µM (inactive) in the experiment on NCI-H23; > 10 µM (inactive) in the experiment on OVCAR-3. For the same molecule, the GI50 in the experiment with MDA-MB-231, in the experiment on SK-MEL-2, in the experiment with IGROV-1, in the experiment with HT-29, in the experiment with TK-10 and in the experiment with NCI-H226 was > 10 µM (inactive) each time. Also, the GI50 in the experiment with OVCAR-8 is > 8.51 µM (inactive); in the experiment with SF-539, > 9.31 µM (inactive); in the experiment on OVCAR-4, > 10 µM (inactive); in the experiment with PC-3 it was > 6.01 µM (inactive); with OVCAR-5 it was > 10 µM (inactive); in the experiment on HOP-62, > 10 µM (inactive).

Consider `CN1CCN(C(=S)N2CCN(C)CC2)CC1`, for which the GI50 in the experiment with UACC-257 was > 100 µM (inactive); with Hs-578T it was > 100 µM (inactive); in the experiment with SNB-19 it was > 100 µM (inactive); in the experiment on K562, 7.98 µM (inactive); in the experiment on NCI-H23, > 32.1 µM (inactive); with MDA-MB-231, > 100 µM (inactive). Moreover, the GI50 in the experiment with SK-MEL-2 is > 100 µM (inactive); with IGROV-1, > 84.3 µM (inactive); in the experiment on HT-29, 1.73 µM (inactive); in the experiment on TK-10 it was > 19.7 µM (inactive); in the experiment on NCI-H226, > 100 µM (inactive); in the experiment with OVCAR-8, > 100 µM (inactive). The GI50 in the experiment on SF-539 is 10.8 µM (inactive); with OVCAR-4 it was > 65.2 µM (inactive); in the experiment on PC-3, > 29.8 µM (inactive); in the experiment with OVCAR-5 it was > 100 µM (inactive); in the experiment on HOP-62 it was > 100 µM (inactive).

For `O=C(Nc1ccccc1)n1[nH]c(=O)n(-c2ccccc2)c1=O`, the GI50 was > 100 µM (inactive) with UACC-257; > 100 µM (inactive) in the experiment with Hs-578T; over 100 µM with HCT-15; > 100 µM (inactive) in the experiment on SNB-19; > 100 µM (inactive) with K562; > 100 µM (inactive) in the experiment on NCI-H23. Besides, the GI50 with MDA-MB-231, with SK-MEL-2, in the experiment with HT-29, in the experiment with TK-10, with NCI-H226 and with OVCAR-8 was > 100 µM (inactive) in each case. In addition, the GI50 in the experiment with SF-539, with OVCAR-4 and with PC-3 was > 100 µM (inactive) each time.

In the case of `O=C1c2ccccc2C(=O)N1CCCC(=O)n1cc(F)c(=O)[nH]c1=O`, the GI50 in the experiment with UACC-257 is > 75.2 µM (inactive); with Hs-578T, > 100 µM (inactive); with HCT-15 it was 8.41 µM; in the experiment with SNB-19, 49.1 µM (inactive); with K562, 24.9 µM (inactive); in the experiment with NCI-H23 it was 11.9 µM (inactive). Also, the GI50 with OVCAR-3 was > 22.7 µM (inactive); with MDA-MB-231 it was > 100 µM (inactive); in the experiment with SK-MEL-2 it was > 100 µM (inactive); with IGROV-1 it was 3.4 µM (inactive); in the experiment on HT-29, 4.54 µM (inactive); in the experiment with TK-10 it was > 41.2 µM (inactive). Further, the GI50 in the experiment on NCI-H226 was 38.5 µM (inactive); with OVCAR-8 it was 10.7 µM (inactive); in the experiment on SF-539, 7 µM (inactive); in the experiment with OVCAR-4, > 100 µM (inactive); in the experiment with PC-3 it was 30.1 µM (inactive); in the experiment with HOP-62 it was 8.26 µM (inactive).

Take `CCOC(=O)c1c(C)nc2c(c1-c1cn(-c3ccccc3)nc1-c1ccccc1)C(=O)c1ccccc1-2`: the GI50 is > 100 µM (inactive) with UACC-257; > 100 µM (inactive) in the experiment with Hs-578T; over 100 µM in the experiment on HCT-15; > 100 µM (inactive) in the experiment on SNB-19; > 100 µM (inactive) in the experiment with K562; > 100 µM (inactive) in the experiment with NCI-H23. Also, the GI50 in the experiment on OVCAR-3 was > 100 µM (inactive); in the experiment on MDA-MB-231 it was > 100 µM (inactive); with SK-MEL-2 it was > 100 µM (inactive); with IGROV-1 it was > 100 µM (inactive); with HT-29, 13.8 µM (inactive); in the experiment with TK-10, > 100 µM (inactive). For the same molecule, the GI50 in the experiment with NCI-H226, with OVCAR-8, in the experiment on OVCAR-4, in the experiment with PC-3, in the experiment with OVCAR-5 and with HOP-62 was > 100 µM (inactive) in each case.
